According to US10160753B2, “Indazole compounds as IRAK4 inhibitors” (Aurigene Discovery Technologies Limited, priority 2014, dated 2018):
Where a name gives a salt, the structure may show the parent alone.

Biological target: T1, recombinant IRAK-4 kinase (Homo sapiens, UniProt Q9NWZ3)
T1 construct: purchased Millipore, USA
T1 sequence (Q9NWZ3 1-460): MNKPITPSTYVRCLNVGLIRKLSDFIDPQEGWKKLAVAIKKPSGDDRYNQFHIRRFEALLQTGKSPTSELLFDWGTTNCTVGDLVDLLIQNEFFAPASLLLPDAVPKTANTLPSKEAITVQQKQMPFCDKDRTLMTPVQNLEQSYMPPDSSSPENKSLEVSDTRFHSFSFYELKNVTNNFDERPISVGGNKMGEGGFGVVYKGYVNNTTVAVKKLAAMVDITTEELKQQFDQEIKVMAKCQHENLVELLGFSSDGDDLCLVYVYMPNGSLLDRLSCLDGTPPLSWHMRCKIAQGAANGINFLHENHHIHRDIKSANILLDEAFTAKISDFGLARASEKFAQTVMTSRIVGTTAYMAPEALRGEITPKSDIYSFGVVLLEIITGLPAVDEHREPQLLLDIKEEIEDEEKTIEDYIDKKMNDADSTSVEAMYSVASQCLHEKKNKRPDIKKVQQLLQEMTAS
Experiment: IRAK-4 Biochemical Assay (TR-FRET)
Details: 30 min pre-incubation, 100 nM Biotin Histone H3, 20 μM ATP, read-out: IC50 values for IRAK4 activity
Experimental: Compounds were tested for their potential to inhibit IRAK-4 enzyme in a TR-FRET assay using recombinant IRAK-4 kinase from Millipore, USA. The assay buffer was 50 mM Tris-HCl pH 7.5, 20 mM MgCl2, 1 mM EGTA, 2 mM DTT, 3 mM MnCl2 and 0.01% Tween 20.5 ng of IRAK-4 kinase was used for the assay. After pre-incubation of enzyme with test compound for 30 minutes at room temperature, a substrate mixture containing 100 nM Biotin Histone H3 (Millipore, USA) and 20 μM ATP (Sigma, USA) was added and the reaction was incubated for 30 min. Post incubation, the reaction was stopped by the addition of stop mix containing 40 mM EDTA, 1 nM of Europium-Anti-Phospho-Histone H3 (Ser10) antibody (Perkin Elmer, USA) and 20 nM SureLight Allophycocyanin-Streptavidin (Perkin Elmer, USA). The fluorescence emission at 615 nm and 665 nm were measured at an excitation of 340 nm and the percent inhibition was estimated from the ratio of the fluorescence intensities [(F665/F615)×10000]. The compounds were initially screened at 1 μM and 10 μM concentrations and potent compounds (>50% inhibition at 1 μM) were taken for dose response studies. The IC50 values were estimated by fitting the dose-response data to sigmoidal dose response (variable slope), curve fitting program using Graphpad Prism software Version 6.01.

Structure (SMILES) | IC50
Cc1cc(-c2nc(C(=O)Nc3cc4cn(C)nc4cc3N3CCCC3)co2)ccn1 [Example 63, N-(2-methyl-6-(pyrrolidin-1-yl)-2H-indazol-5-yl)-2-(2-methylpyridin-4-yl)oxazole-4-carboxamide] | < 50 nM
Cc1cc(-c2nc(C(=O)Nc3cc4cn(C)nc4cc3N3CC[C@H](O)C3)co2)ccn1 [Example 64, (S)—N-(6-(3-hydroxypyrrolidin-1-yl)-2-methyl-2H-indazol-5-yl)-2-(2-methylpyridin-4-yl)oxazole-4-carboxamide] | < 50 nM
Cc1cc(-c2nc(C(=O)Nc3cc4cn(C)nc4cc3N3CC[C@@H](O)C3)co2)ccn1 [Example 65, (R)—N-(6-(3-hydroxypyrrolidin-1-yl)-2-methyl-2H-indazol-5-yl)-2-(2-methylpyridin-4-yl)oxazole-4-carboxamide] | < 50 nM
Cc1cc(-c2ccc(C(=O)Nc3cc4cn(C)nc4cc3N3CCCCC3)o2)ccn1 [Example 66, N-(2-methyl-6-(piperidin-1-yl)-2H-indazol-5-yl)-5-(2-methylpyridin-4-yl)furan-2-carboxamide] | < 50 nM
Cc1cc(-c2ccc(C(=O)Nc3cc4cn(C)nc4cc3N3CCC(O)CC3)o2)ccn1 [Example 67, N-(6-(4-hydroxypiperidin-1-yl)-2-methyl-2H-indazol-5-yl)-5-(2-methylpyridin-4-yl)furan-2-carboxamide] | < 50 nM
Cc1cc(-c2nc(C(=O)Nc3cc4cn(C)nc4cc3N3CCCC(O)C3)co2)ccn1 (centres unmarked) [Example 68, N-(6-(3-hydroxypiperidin-1-yl)-2-methyl-2H-indazol-5-yl)-2-(2-methylpyridin-4-yl)oxazole-4-carboxamide] | < 50 nM
Cc1cc(-c2ccc(C(=O)Nc3cc4cn(C)nc4cc3N3CCC[C@@H](O)C3)o2)ccn1 [Example 69, (R)—N-(6-(3-hydroxypiperidin-1-yl)-2-methyl-2H-indazol-5-yl)-5-(2-methylpyridin-4-yl)furan-2-carboxamide] | < 50 nM
Cc1cc(-c2ccc(C(=O)Nc3cc4cn(C)nc4cc3N3CCCC(O)C3)o2)ccn1 (centres unmarked) [Example 70, N-(6-(3-hydroxypiperidin-1-yl)-2-methyl-2H-indazol-5-yl)-5-(2-methylpyridin-4-yl)furan-2-carboxamide] | < 50 nM
Cc1cc(-c2nc(C(=O)Nc3cc4cn(C)nc4cc3N3CCCCCC3)co2)ccn1 [Example 71, N-(6-(azepan-1-yl)-2-methyl-2H-indazol-5-yl)-2-(2-methylpyridin-4-yl)oxazole-4-carboxamide] | < 50 nM
Cc1cc(-c2nc(C(=O)Nc3cc4cnn(C)c4cc3N3CCCCCC3)co2)ccn1 [Example 72, N-(6-(azepan-1-yl)-1-methyl-1H-indazol-5-yl)-2-(2-methylpyridin-4-yl)oxazole-4-carboxamide] | < 50 nM
Cc1cc(-c2nc(C(=O)Nc3cc4c(C)n(C)nc4cc3N3CCCCC3)co2)ccn1 [Example 73, N-(2,3-dimethyl-6-(piperidin-1-yl)-2H-indazol-5-yl)-2-(2-methylpyridin-4-yl)oxazole-4-carboxamide] | < 50 nM
Cc1cc(-c2nc(C(=O)Nc3cc4c(C)nn(C)c4cc3N3CCCCC3)co2)ccn1 [Example 74, N-(1,3-dimethyl-6-(piperidin-1-yl)-1H-indazol-5-yl)-2-(2-methylpyridin-4-yl)oxazole-4-carboxamide] | < 50 nM
COCCn1ncc2cc(NC(=O)c3coc(-c4ccnc(C)c4)n3)c(N3CCC(O)CC3)cc21 [Example 75, N-(6-(4-hydroxypiperidin-1-yl)-1-(2-methoxyethyl)-1H-indazol-5-yl)-2-(2-methylpyridin-4-yl)oxazole-4-carboxamide] | < 50 nM
COCCn1cc2cc(NC(=O)c3coc(-c4ccnc(C)c4)n3)c(N3CCC(O)CC3)cc2n1 [Example 76, N-(6-(4-hydroxypiperidin-1-yl)-2-(2-methoxyethyl)-2H-indazol-5-yl)-2-(2-methylpyridin-4-yl)oxazole-4-carboxamide] | < 50 nM
Cc1cc(-c2nc(C(=O)Nc3cc4cnn(C)c4cc3N3CCC(O)CC3)co2)ccn1 [Example 77, N-(6-(4-hydroxypiperidin-1-yl)-1-methyl-1H-indazol-5-yl)-2-(2-methylpyridin-4-yl)oxazole-4-carboxamide] | < 50 nM
Cc1cc(-c2nc(C(=O)Nc3cc4cnn(C)c4cc3N3CCC(F)CC3)co2)ccn1 [Example 78, N-(6-(4-fluoropiperidin-1-yl)-1-methyl-1H-indazol-5-yl)-2-(2-methylpyridin-4-yl)oxazole-4-carboxamide] | < 50 nM
Cc1cc(-c2nc(C(=O)Nc3cc4cn(C)nc4cc3N3CCCC(F)C3)co2)ccn1 (centres unmarked) [Example 79, N-(6-(3-fluoropiperidin-1-yl)-2-methyl-2H-indazol-5-yl)-2-(2-methylpyridin-4-yl)oxazole-4-carboxamide] | < 50 nM

Now from value to compound:

IC50 | Structure (SMILES)
< 50 nM | Cc1cc(-c2nc(C(=O)Nc3cc4cn(C)nc4cc3N3CCC(CO)CC3)co2)ccn1 [Example 80, N-(6-(4-(hydroxymethyl)piperidin-1-yl)-2-methyl-2H-indazol-5-yl)-2-(2-methylpyridin-4-yl)oxazole-4-carboxamide]
< 50 nM | Cc1cc(-c2nc(C(=O)Nc3cc4c(C)nn(C)c4cc3N3CCC(O)CC3)co2)ccn1 [Example 81, N-(6-(4-hydroxypiperidin-1-yl)-1,3-dimethyl-1H-indazol-5-yl)-2-(2-methylpyridin-4-yl)oxazole-4-carboxamide]
< 50 nM | Cc1cc(-c2nc(C(=O)Nc3cc4cn(C)nc4cc3N3CCCC(CO)C3)co2)ccn1 (centres unmarked) [Example 82, N-(6-(3-(hydroxymethyl)piperidin-1-yl)-2-methyl-2H-indazol-5-yl)-2-(2-methylpyridin-4-yl)oxazole-4-carboxamide]
< 50 nM | Cc1cc(-c2nc(C(=O)Nc3cc4c(C)n(C)nc4cc3N3CCC(O)CC3)co2)ccn1 [Example 83, N-(6-(4-hydroxypiperidin-1-yl)-2,3-dimethyl-2H-indazol-5-yl)-2-(2-methylpyridin-4-yl)oxazole-4-carboxamide]
< 50 nM | CC(=O)Nc1cc(-c2nc(C(=O)Nc3cc4cn(C)nc4cc3N3CCCCC3)co2)ccn1 [Example 84, 2-(2-acetamidopyridin-4-yl)-N-(2-methyl-6-(piperidin-1-yl)-2H-indazol-5-yl)oxazole-4-carboxamide]
< 50 nM | CC(=O)Nc1cc(-c2nc(C(=O)Nc3cc4cn(C)nc4cc3N3CCCC(F)C3)co2)ccn1 (centres unmarked) [Example 85, 2-(2-acetamidopyridin-4-yl)-N-(6-(3-fluoropiperidin-1-yl)-2-methyl-2H-indazol-5-yl)oxazole-4-carboxamide]
< 50 nM | Cn1cc2cc(NC(=O)c3coc(-c4ccnc(N)c4)n3)c(N3CCCCC3)cc2n1 [Example 86, 2-(2-aminopyridin-4-yl)-N-(2-methyl-6-(piperidin-1-yl)-2H-indazol-5-yl)oxazole-4-carboxamide hydrochloride]
< 50 nM | Cc1cc(-c2nc(C(=O)Nc3cc4c(C)nn(C)c4cc3N3CCC(F)CC3)co2)ccn1 [Example 87, N-(6-(4-fluoropiperidin-1-yl)-1,3-dimethyl-1H-indazol-5-yl)-2-(2-methylpyridin-4-yl)oxazole-4-carboxamide]
< 50 nM | Cc1cc(-c2nc(C(=O)Nc3cc4cn(C)nc4cc3N[C@H]3CC[C@H](O)CC3)co2)ccn1 [Example 88, N-(6-(((1R,4R)-4-hydroxycyclohexyl)amino)-2-methyl-2H-indazol-5-yl)-2-(2-methylpyridin-4-yl)oxazole-4-carboxamide]
